The source of these data is patent US12612408B2, “Pyrazolone-fused pyrimidine compound, preparation method for same and applications thereof” (SHANGHAI PHARMACEUTICALS HOLDING CO., LTD., priority 2019, dated 2026).

Data set [1] deals with T1, WEE1 kinase (Homo sapiens, UniProt P30291).
T1 construct: purchased CarnaBiosciences, Inc. 05-177
As to the kind of experiment: Inhibitory effect of compound on WEE1 kinase in vitro (ELISA). The class given is biochemical. The settings on record: ATP concentration of Km. As to the method:
The tested compounds were screened on WEE1 kinase with ATP concentration of Km by ELISA. Compounds were screened on WEE1 kinase to evaluate the kinase inhibitory activity of the tested compounds. In the detection process, the initial concentration of the tested compounds was all selected as 100 nM, and each compound was selected with 6 gradient dilution concentrations, the gradient dilution ratio was 4-fold, and two replicate wells were detected for each concentration, MK1775 was used as the standard control.
WEE1, purchased from CarnaBiosciences, Inc., Item No. 05-177; dimethyl sulfoxide, purchased from Sigma-Aldrich, Item No. D8418; ATP, purchased from Sigma-Aldrich, Item No. A7699; DTT solution, purchased from Sigma-Aldrich, Item No. 43816; protein tyrosine kinase (PTK) substrate (poly-Glu-Tyr), purchased from Sigma-Aldrich, Item No. P4476; P-Tyr (PY99), purchased from Santa Cruz, Item No. sc-7020; Anti-mouse IgG HRP-linked Antibody, purchased from Santa Cruz, Item No. 7076S; TMB liquid Substrate System, purchased from Sigma-Aldrich, Item No. T0440; Costar Stripwell Microplate No Lid 1×8 Flat Bottom, Certified High Binding, purchased from Sigma-Aldrich, Item No. 42592; 96-well compound plate, purchased from Thermo Scientific, Item No. 267245.
• 1. Coating substrate: 1) An appropriate volume of substrate storage solution protein tyrosine kinase (PTK) substrate (poly-Glu-Tyr) was taken, diluted 10 times with PBS, and the concentration was diluted from […]. The mixture was added to a high adsorption 96-well plate at 125 μL per well. The plate was placed in an incubator at 37° C. for overnight coating. 2) After 24 hours, the 96-well plate was taken out, the liquid in the 96-well plate was poured out, cleaned with washing buffer for 3 times, and the incubator at 37° C. was inverted and dried for 2 hours. • 2. Compound preparation and transfer: 1) compound dilution: 10 mM of the test compound storage solution was taken, the compound in 96-well compound plate was diluted with DMSO in multiple steps to obtain the initial concentration of 100× compound as the first concentration, and then DMSO was used for 4-fold gradient dilution, for a total of 6 concentrations; after that, 2 μL of the gradient dilution solution was added to 48 μL of 1× reaction buffer respectively to prepare 4× compound; 2) 4× compounds were transferred: 10 μL of 4× compounds from the 96-well compound plate configured in the previous step were transferred into the dried high adsorption 96-well plate; 10 μL of the following liquids were added to the compound-free control wells and ATP-control wells: 2 μL of DMSO was added to 48 μL of 1× reaction buffer. • 3. Enzyme reaction stage: 1) WEE1 kinase and ATP were prepared into 2× enzyme solution and 4×ATP solution respectively with 1× reaction buffer. In this screening, the final concentration of WEE1 kinase was: 0.15 ng/μL and the final concentration of ATP was: […]; 2) 20 μL of enzyme solution of 2 was added to the high adsorption 96-well plate; 3) 10 μL of 4×ATP solution was added to the high adsorption 96-well plate and 10 μL of 1× reaction buffer was added to the ATP-control group; 4) the plate was placed in HERAEUS Multifuge X1R centrifuge at 2000 rpm for 20 s and then placed at room temperature and reacted for 60 min. • 4. Reaction termination stage: 1) the reaction mixture in the plate was poured out, 200 μL of washing buffer was added to each well, and washed for 5 times; the primary antibody P-Tyr (PY99) (dilution ratio 1:2000) was added, 100 μL per well, at room temperature for 30 min. 2) The primary antibody in the plate was poured out, 200 μL of washing buffer was added to each well, and washed for 5 times; the second antibody Anti-mouse IgG HRP-linked Antibody (dilution ratio 1:2000) was added, 100 μL per well, at room temperature for 30 min.
(An ELISA detects its analyte on a solid surface through an enzyme-linked reagent.)

Data set [2] can be described thus: Bioavailability test in vivo in mice (pharmacokinetics, iv and intragastric). Set-up: species or system ICR mice. The settings on record: for Cmax / MRT / Tmax / clearance / half-life / Vd / bioavailability: ICR, mouse, plasma; for bioavailability: po 10 mg/kg vs iv 3 mg/kg, read-out: F (absolute bioavailability). Here is the method: 404.6 μL of DMSO was added to the compound powder of the present disclosure until the compound was completely dissolved, and 50 mg/mL mother liquor was prepared in a clarified state.
The compound of the present disclosure: 24 μL of mother liquor was accurately measured, diluted to 4 mL according to the ratio of 0.9% normal saline:PEG400=8:2, the preparation concentration was 0.3 mg/mL, the solution was in a clarified state, and it was used as intravenous administration solution. In addition, 80 μL mother liquor was accurately measured, and 0.5% CMC-Na was added to 8 mL to grind it into a uniform suspension with a concentration of 0.5 mg/mL, which was used as intragastric administration solution.
Intravenous group: 24 ICR mice, 20±2 g, were given the intravenous administration solution of the compound of the present disclosure by intravenous injection, with the volume of 10 mL/kg, with the dose of 3 mg/kg, the blood was taken from the fundus venous plexus of mice, 2, 5, 15, 30, 60, 90, 120, 240, 360, 480, 600 and 1440 minutes before and after administration.
Intragastric group: 24 ICR mice, 20±2 g, were given the intragastric administration solution of the compound of the present disclosure by intragastric injection, with the volume of 20 mL/kg, with the dose of 10 mg/kg, the blood was taken from the fundus venous plexus of mice, 5, 15, 30, 60, 90, 120, 240, 360, 480, 600 and 1440 minutes before and after administration.
Blood sample was centrifuged at 8000 rpm for 5 min, and the plasma was stored in a centrifuge tube at −20° C. for later use.
300 μL of acetonitrile containing internal standard (Propranolol, 25 ng/mL) was added to 50 μL of plasma samples to precipitate protein, vortexed for 10 min, 6000 g, 4° C., centrifuged for 10 min; the supernatant before intravenous injection for 1 hour was taken, diluted 10 times with acetonitrile containing internal standard, the rest supernatant was kept undiluted, centrifuged for 10 min again at 6000 g, 4° C., and the supernatant was taken and then injected into a 96-well plate.
Dose; peak concentration: Cmax; peak time: Tmax; area under the drug-time curve from AUClast 0 to time t; half-life: T1/2; mean retention time: MRT; clearance: Cl; apparent distribution volume: Vz; steady-state distributed volume: Vss; absolute bioavailability: F.
The pharmacokinetic parameters of the compound in mice after intravenous injection or intragastric administration were shown in Table 4 and Table 5 below.

Where [3] appears, read: iv, 3 mg/kg, iv, 3 mg/kg, read-out: Vss.
Setting [4] is: iv, 3 mg/kg, iv, 3 mg/kg, read-out: Vz.

Like-named read-outs stand apart in the source and are kept apart here.

T1 sequence (P30291 whole entry): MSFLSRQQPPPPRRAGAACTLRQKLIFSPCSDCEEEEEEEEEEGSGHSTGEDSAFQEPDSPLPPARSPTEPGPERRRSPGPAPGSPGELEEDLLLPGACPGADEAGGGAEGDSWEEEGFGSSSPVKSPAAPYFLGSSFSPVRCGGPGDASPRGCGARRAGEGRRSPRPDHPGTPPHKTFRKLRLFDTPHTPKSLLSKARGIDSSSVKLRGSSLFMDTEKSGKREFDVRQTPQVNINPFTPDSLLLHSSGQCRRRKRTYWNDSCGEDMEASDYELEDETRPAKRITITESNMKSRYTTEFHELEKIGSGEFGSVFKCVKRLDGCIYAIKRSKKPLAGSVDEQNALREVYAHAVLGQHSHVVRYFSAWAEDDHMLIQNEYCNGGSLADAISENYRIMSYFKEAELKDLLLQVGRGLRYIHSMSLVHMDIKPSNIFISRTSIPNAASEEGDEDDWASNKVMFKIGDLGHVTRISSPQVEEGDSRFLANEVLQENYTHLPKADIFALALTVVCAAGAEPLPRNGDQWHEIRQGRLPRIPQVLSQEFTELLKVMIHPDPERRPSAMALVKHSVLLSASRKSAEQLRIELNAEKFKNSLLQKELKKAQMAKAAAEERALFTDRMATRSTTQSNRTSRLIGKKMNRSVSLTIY

As to `C=CCn1c(=O)c2cnc(Nc3ccc4c(c3)CCC(N(C)C)C4)nc2n1-c1cccc(C(C)(C)O)n1` (stereo not drawn) [Control 2, reference compound], half-maximal inhibition in data set [1] (IC50) required 1.98 nM. In data set [2] (iv, 3 mg/kg), the peak concentration (Cmax) (usually the highest concentration seen after dosing) is 646 ± 76.8 ng/mL; the MRT (usually the average time that molecules of a dose stay in the body) was found to be 0.86 ± 0.16 h; the time to peak (Tmax) (in general, the time at which the peak concentration occurs) stood at 0.03 h; the clearance (as a rule, the rate of elimination divided by the concentration) is 188 mL/min/kg. In data set [2] (iv, 3 mg/kg), the half-life (usually the time in which the quantity being followed falls by half) is 1.37 ± 0.33 h and the AUClast is on record as 261.52 ± 26.93 (h) (ng/mL). Moreover, the Vd in data set [2] (setting [3]) was 9.69 ± 0.96 L/kg. In data set [2] (setting [4]), the Vd was determined as 22.2 ± 3.29 L/kg. Moreover, the bioavailability (in general, dose-corrected exposure relative to a reference, in per cent) in data set [2] was 9.19%. Also, in data set [2] (po (intragastric), 10 mg/kg), the peak level (Cmax) was 27.8 ± 4.76 ng/mL, the MRT stood at 3.78 ± 1.56 h, the Tmax worked out at 1.67 ± 2.02 h and the half-life is 2.51 ± 1.85 h. Besides, the AUClast in data set [2] (po (intragastric), 10 mg/kg) is reported as 80.15 ± 9.62 (h) (ng/mL).
As to `C=CCn1c(=O)c2cnc(Nc3ccc(C4CCC(N5CCC5)CC4)cc3)nc2n1-c1cccc(C(C)(C)O)n1` (stereo not drawn) [Compound I-8], in data set [1], the half-inhibitory concentration (IC50) (in general, the concentration that inhibits the measured activity by half) came to 1.52 nM. In addition, in data set [2] (iv, 3 mg/kg), the highest level (Cmax) was 644 ± 132 ng/mL, the mean residence time MRT was determined as 1.11 ± 0.08 h, the Tmax turned out to be 0.03 h and the clearance was 155 mL/min/kg. In addition, in data set [2] (iv, 3 mg/kg), the half-life is 1.22 ± 0.1 h and the AUClast is given as 317.5 ± 34.41 (h) (ng/mL). Moreover, the Vd in data set [2] (setting [3]) is 10.3 ± 0.86 L/kg. Further, the Vd in data set [2] (setting [4]) worked out at 16.3 ± 2.48 L/kg. The bioavailability in data set [2] is 60.3%. In data set [2] (po (intragastric), 10 mg/kg), the highest concentration (Cmax) is 58.1 ± 7.09 ng/mL, the mean residence time MRT came out at 3.47 ± 1.22 h, the time of peak concentration (Tmax) is 1.67 ± 0.29 h and the half-life is 1.57 ± 0.39 h. Also, in data set [2] (po (intragastric), 10 mg/kg), the AUClast is listed as 637.9 ± 302.3 (h) (ng/mL).
In data set [1], `C=CCn1c(=O)c2cnc(Nc3ccc(C4CCC(N(C)C)CC4)cc3)nc2n1-c1cccc(C(C)(C)O)n1` (single isomer, unassigned) [Compound I-1-1] displayed a half-inhibitory concentration (IC50) of 1.9 nM. In addition, in data set [2] (iv, 3 mg/kg), the peak level (Cmax) was 701 ± 142 ng/mL, the MRT stood at 1.75 ± 0.46 h, the Tmax amounted to 0.03 h and the clearance was 129 mL/min/kg. Moreover, in data set [2] (iv, 3 mg/kg), the half-life was 4.31 ± 1.51 h and the AUClast is reported as 372.5 ± 24.38 (h) (ng/mL). Further, the Vd in data set [2] (setting [3]) is 13.6 ± 3.95 L/kg. Further, in data set [2] (setting [4]), the Vd worked out at 48.5 ± 18.4 L/kg. The bioavailability in data set [2] amounted to 42.6%. In addition, in data set [2] (po (intragastric), 10 mg/kg), the Cmax turned out to be 245 ± 220 ng/mL, the mean residence time MRT amounted to 4.33 ± 9.02 h, the Tmax was 2.5 ± 1.32 h and the half-life is 3.1 ± 9.02 h. Besides, the AUClast in data set [2] (po (intragastric), 10 mg/kg) was 528.6 ± 331.1 (h) (ng/mL).
